Measurements reported in patent publication US20020177180A1, “pH-indicator based assay for selective enzymes” (ThermoGen, Inc., priority 1998, published 2002).

Key:
Format in all cases: biochemical
ThermoGen esterases = assay: Initial screening (pH indicator): esters as substrates of the ThermoGen esterases, statements for the esterases as a group; conditions: for estimated enantioselectivities with ThermoGen esterases (in words): ratio of initial rates of enantiomer pairs; for quality as substrate of the ThermoGen esterases (in words): esters 1-31, initial screening; for quality as substrate of the ThermoGen esterases (in words), enantiomer pairs: enantiomer pair library, Tables 8-12
Method: (§1) Initial screening measures the initial rate of hydrolysis of different esters. The rate of reaction was measured by monitoring the release of protons using a pH indicator, 4-nitrophenol. In this assay, the yellow color of the phenoxide disappears as the reaction proceeds. The amount of ester hydrolyzed can be measured quantitatively, as is known in the art.
(§2) To survey the substrate selectivity of the ThermoGen esterases, the ability of the enzymes to hydrolyze thirty-one different commercially-available esters, Scheme 1 (FIG. 9, Table 6).
To evaluate the potential of the ThermoGen esterases for enantioselective reactions, the initial rates of hydrolysis of the esterases were measured using twenty-one pairs of enantiomers, Scheme 2, FIG. 10 and Tables 8-12. The ratio of these initial rates is an estimated enantioselectivity.

esterase E015 = assay: Initial screening of ThermoGen esterases toward esters 1-31 (pH indicator), specific activity; conditions: 1 mM substrate, pH 7.2, 7 vol % acetonitrile, 25° C.
Method: as §1, §2

esterase E012 = assay: as above; conditions: 1 mM substrate, pH 7.2, 7 vol % acetonitrile, 25° C.
Method: as §1, §2

esterase E020 = assay: as above; conditions: 1 mM substrate, pH 7.2, 7 vol % acetonitrile, 25° C.
Method: as §1, §2

esterase E014 = assay: as above; conditions: 1 mM substrate, pH 7.2, 7 vol % acetonitrile, 25° C.
Method: as §1, §2

esterase E016 = assay: as above; conditions: 1 mM substrate, pH 7.2, 7 vol % acetonitrile, 25° C.
Method: as §1, §2

esterase E006 = assay: as above; conditions: 1 mM substrate, pH 7.2, 7 vol % acetonitrile, 25° C.
Method: as §1, §2

esterase E011 = assay: as above; conditions: 1 mM substrate, pH 7.2, 7 vol % acetonitrile, 25° C.
Method: as §1

Row | Structure (SMILES) | Specific activity, esterase E015 (esterase E015) | Specific activity, esterase E012 (esterase E012) | Specific activity, esterase E020 (esterase E020) | Specific activity, esterase E014 (esterase E014) | Specific activity, esterase E016 (esterase E016) | Specific activity, esterase E006 (esterase E006) | Specific activity, esterase E011 (esterase E011) | quality as substrate of the ThermoGen esterases (in words), enantiomer pairs (ThermoGen esterases) | other results
1 | CC1(COC(=O)c2ccc([N+](=O)[O-])cc2)CO1 (single isomer, unassigned) [Substrate 34] | – | – | – | – | – | – | – | – | estimated enantioselectivities with ThermoGen esterases (in words) (ThermoGen esterases): estimated enantioselectivities above two with several esterases
2 | COC(=O)C(O)c1ccccc1 (centres unmarked) [Substrate 21] | <0.1 mmol ester hydrolyzed/min/mg protein | <2 mmol ester hydrolyzed/min/mg protein | <0.2 mmol ester hydrolyzed/min/mg protein | <0.1 mmol ester hydrolyzed/min/mg protein | <2 mmol ester hydrolyzed/min/mg protein | <0.1 mmol ester hydrolyzed/min/mg protein | 0.04 mmol ester hydrolyzed/min/mg protein | – | quality as substrate of the ThermoGen esterases (in words) (ThermoGen esterases): usually poor substrates
3 | CC(=O)OC1CC(C)CCC1C(C)C (centres unmarked) [Substrate 36] | – | – | – | – | – | – | – | – | estimated enantioselectivities with ThermoGen esterases (in words) (ThermoGen esterases): estimated enantioselectivities above two with several esterases
4 | COC(=O)C(C)N (single isomer, unassigned) [Substrate 47] | – | – | – | – | – | – | – | poorest substrates | estimated enantioselectivities with ThermoGen esterases (in words) (ThermoGen esterases): estimated enantioselectivities above two with several esterases
5 | COC(=O)C(N)Cc1c[nH]c2ccccc12 (single isomer, unassigned) [Substrate 50] | – | – | – | – | – | – | – | – | estimated enantioselectivities with ThermoGen esterases (in words) (ThermoGen esterases): estimated enantioselectivities above two with several esterases
6 | COC(=O)C(C)Cl (single isomer, unassigned) [Substrate 45] | – | – | – | – | – | – | – | – | estimated enantioselectivities with ThermoGen esterases (in words) (ThermoGen esterases): higher estimated enantioselectivities with most ThermoGen esterases
7 | CCCCCCCC(=O)OCC1COC(C)(C)O1 (single isomer, unassigned) [Substrate 35] | – | – | – | – | – | – | – | best substrates | –
8 | COC(=O)C(C)CO (single isomer, unassigned) [Substrate 39] | – | – | – | – | – | – | – | poorest substrates | –
9 | CCOC(=O)C(F)(F)F [Substrate 17] | 190 mmol ester hydrolyzed/min/mg protein | 1200 mmol ester hydrolyzed/min/mg protein | 0.35 mmol ester hydrolyzed/min/mg protein | 1.4 mmol ester hydrolyzed/min/mg protein | 1500 mmol ester hydrolyzed/min/mg protein | 1.7 mmol ester hydrolyzed/min/mg protein | 2.7 mmol ester hydrolyzed/min/mg protein | – | quality as substrate of the ThermoGen esterases (in words) (ThermoGen esterases): best substrates
10 | COC(=O)CC(C)O (single isomer, unassigned) [Substrate 40] | – | – | – | – | – | – | – | poorest substrates | –
11 | CCCC(=O)OC(C)c1ccccc1 (single isomer, unassigned) [Substrate 38] | – | – | – | – | – | – | – | – | estimated enantioselectivities with ThermoGen esterases (in words) (ThermoGen esterases): higher estimated enantioselectivities with most ThermoGen esterases
12 | CCCC(=O)OCC1COC(C)(C)O1 (single isomer, unassigned) [Substrate 32] | – | – | – | – | – | – | – | best substrates | –
13 | CC1(C)COC(=O)C1O (single isomer, unassigned) [Substrate 52] | – | – | – | – | – | – | – | poorest substrates | –
14 | COC(=O)C(O)c1ccccc1 (single isomer, unassigned) [Substrate 46] | – | – | – | – | – | – | – | poorest substrates | –
15 | O=C1CCC(CO)O1 (single isomer, unassigned) [Substrate 51] | – | – | – | – | – | – | – | poorest substrates | –
16 | CCCCCCCC(=O)OCC [Substrate 15] | 120 mmol ester hydrolyzed/min/mg protein | 19 mmol ester hydrolyzed/min/mg protein | 2.6 mmol ester hydrolyzed/min/mg protein | 5.1 mmol ester hydrolyzed/min/mg protein | 83 mmol ester hydrolyzed/min/mg protein | 160 mmol ester hydrolyzed/min/mg protein | 11 mmol ester hydrolyzed/min/mg protein | – | –
17 | COC(=O)C1COC(C)(C)O1 (single isomer, unassigned) [Substrate 43] | – | – | – | – | – | – | – | – | estimated enantioselectivities with ThermoGen esterases (in words) (ThermoGen esterases): estimated enantioselectivities above two with several esterases
18 | COC(=O)c1ccc(CO)cc1 [Substrate 23] | 0.13 mmol ester hydrolyzed/min/mg protein | <2 mmol ester hydrolyzed/min/mg protein | 0.47 mmol ester hydrolyzed/min/mg protein | <0.1 mmol ester hydrolyzed/min/mg protein | <2 mmol ester hydrolyzed/min/mg protein | 0.27 mmol ester hydrolyzed/min/mg protein | <0.1 mmol ester hydrolyzed/min/mg protein | – | –
19 | CCCC(=O)OCC [Substrate 13] | 2.0 mmol ester hydrolyzed/min/mg protein | <2 mmol ester hydrolyzed/min/mg protein | 3.0 mmol ester hydrolyzed/min/mg protein | 0.40 mmol ester hydrolyzed/min/mg protein | 3.5 mmol ester hydrolyzed/min/mg protein | 1.1 mmol ester hydrolyzed/min/mg protein | 0.71 mmol ester hydrolyzed/min/mg protein | – | quality as substrate of the ThermoGen esterases (in words) (ThermoGen esterases): reacted much slower
20 | CC(C)(C)CC(=O)Oc1ccc2nc3ccc(=O)cc-3oc2c1 [Substrate 10, Resorufin t-butylacetate (resorufin 3,3-dimethylbutyrate), reference compound] | 5.9 mmol ester hydrolyzed/min/mg protein | 22 mmol ester hydrolyzed/min/mg protein | 14 mmol ester hydrolyzed/min/mg protein | 1.0 mmol ester hydrolyzed/min/mg protein | 50 mmol ester hydrolyzed/min/mg protein | 5.7 mmol ester hydrolyzed/min/mg protein | 2.7 mmol ester hydrolyzed/min/mg protein | – | quality as substrate of the ThermoGen esterases (in words) (ThermoGen esterases): good substrate for several esterases
21 | NC(Cc1ccccc1)C(=O)Oc1ccc([N+](=O)[O-])cc1.O=C(O)C(F)(F)F (racemic) [Substrate 3, D,L-phenylalanine-4-nitrophenol ester TFA salt, reference compound] | 280 mmol ester hydrolyzed/min/mg protein | 37 mmol ester hydrolyzed/min/mg protein | 550 mmol ester hydrolyzed/min/mg protein | 180 mmol ester hydrolyzed/min/mg protein | 230 mmol ester hydrolyzed/min/mg protein | 410 mmol ester hydrolyzed/min/mg protein | 220 mmol ester hydrolyzed/min/mg protein | – | –
22 | CCCC(=O)OCC1COC(C)(C)O1 (racemic) [Substrate 8, (±)-Solketal Butyrate, reference compound] | 0.16 mmol ester hydrolyzed/min/mg protein | <2 mmol ester hydrolyzed/min/mg protein | <0.2 mmol ester hydrolyzed/min/mg protein | <0.1 mmol ester hydrolyzed/min/mg protein | 2.2 mmol ester hydrolyzed/min/mg protein | 0.13 mmol ester hydrolyzed/min/mg protein | <0.1 mmol ester hydrolyzed/min/mg protein | – | –
23 | CCCC(=O)OCC1CO1 (centres unmarked) [Substrate 30] | 3.2 mmol ester hydrolyzed/min/mg protein | 3.4 mmol ester hydrolyzed/min/mg protein | 2.0 mmol ester hydrolyzed/min/mg protein | 0.53 mmol ester hydrolyzed/min/mg protein | 14 mmol ester hydrolyzed/min/mg protein | 3.5 mmol ester hydrolyzed/min/mg protein | 1.2 mmol ester hydrolyzed/min/mg protein | – | –
24 | COC(=O)C(C)CBr (single isomer, unassigned) [Substrate 44] | – | – | – | – | – | – | – | – | estimated enantioselectivities with ThermoGen esterases (in words) (ThermoGen esterases): estimated enantioselectivities above two with several esterases
25 | CCOC(=O)C1CCC(=O)N1 (single isomer, unassigned) [Substrate 48] | – | – | – | – | – | – | – | poorest substrates | –
26 | O=C(OCC1CO1)c1ccc([N+](=O)[O-])cc1 (single isomer, unassigned) [Substrate 33] | – | – | – | – | – | – | – | best substrates | –
27 | CCC(C)OC(C)=O (centres unmarked) [Substrate 28] | 0.29 mmol ester hydrolyzed/min/mg protein | <2 mmol ester hydrolyzed/min/mg protein | 2.1 mmol ester hydrolyzed/min/mg protein | <0.1 mmol ester hydrolyzed/min/mg protein | <2 mmol ester hydrolyzed/min/mg protein | 0.16 mmol ester hydrolyzed/min/mg protein | 0.19 mmol ester hydrolyzed/min/mg protein | – | –
